One assay deals with T1, c-kit (Homo sapiens, UniProt P10721).
T1 construct: MO7e (human megakaryocytic leukemia cell line) which had been arrested for 20 hr; endogenous in cells; host or cells: MO7e human megakaryocytic leukemia cell line
In words: Inhibitory activity against c-kit autophosphorylation (MO7e cells, h-SCF). The assay is classed as cell-based. Conditions: MO7e cells, h-SCF 50 ng/ml; read-out: c-kit IC50. Summed up:
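MO7e human megakaryocytic leukemia cells, arrested 20 hr, treated with compound 1 hr, then stimulated with 50 ng/ml h-SCF for 5 min and lysed. Lysates captured on immobilized anti-phosphotyrosine antibody, detected with anti-c-kit primary and HRP secondary antibody; absorbance at 450 nm.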

For a further assay, the target named is T2, PDGF-Ra (Homo sapiens, UniProt P16234).
T2 construct: host or cells: G-292 human osteosarcoma cells
In words: Inhibitory activity against PDGF-Ra phosphorylation by PDGF-AA stimulation using G292. It counts as cell-based. Particulars: for pIC50: Pharmacological Test Example 1, > means inhibition at indicated concentration not more than 50%, < and << not less than 50%, read-out: PDGF (E) IC50. Summed up:
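G-292 human osteosarcoma cells in 0.1% FBS medium overnight, given compound for 1 hr at 37° C, then PDGF-AA 50 ng/ml for 5 min. Lysates captured on anti-phosphotyrosine (PY-20) plates and probed with anti-PDGF-Ra plus HRP secondary; absorbance at 450 nm.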

pIC50: −log10 of the molar value.

T1 sequence (P10721 26-976): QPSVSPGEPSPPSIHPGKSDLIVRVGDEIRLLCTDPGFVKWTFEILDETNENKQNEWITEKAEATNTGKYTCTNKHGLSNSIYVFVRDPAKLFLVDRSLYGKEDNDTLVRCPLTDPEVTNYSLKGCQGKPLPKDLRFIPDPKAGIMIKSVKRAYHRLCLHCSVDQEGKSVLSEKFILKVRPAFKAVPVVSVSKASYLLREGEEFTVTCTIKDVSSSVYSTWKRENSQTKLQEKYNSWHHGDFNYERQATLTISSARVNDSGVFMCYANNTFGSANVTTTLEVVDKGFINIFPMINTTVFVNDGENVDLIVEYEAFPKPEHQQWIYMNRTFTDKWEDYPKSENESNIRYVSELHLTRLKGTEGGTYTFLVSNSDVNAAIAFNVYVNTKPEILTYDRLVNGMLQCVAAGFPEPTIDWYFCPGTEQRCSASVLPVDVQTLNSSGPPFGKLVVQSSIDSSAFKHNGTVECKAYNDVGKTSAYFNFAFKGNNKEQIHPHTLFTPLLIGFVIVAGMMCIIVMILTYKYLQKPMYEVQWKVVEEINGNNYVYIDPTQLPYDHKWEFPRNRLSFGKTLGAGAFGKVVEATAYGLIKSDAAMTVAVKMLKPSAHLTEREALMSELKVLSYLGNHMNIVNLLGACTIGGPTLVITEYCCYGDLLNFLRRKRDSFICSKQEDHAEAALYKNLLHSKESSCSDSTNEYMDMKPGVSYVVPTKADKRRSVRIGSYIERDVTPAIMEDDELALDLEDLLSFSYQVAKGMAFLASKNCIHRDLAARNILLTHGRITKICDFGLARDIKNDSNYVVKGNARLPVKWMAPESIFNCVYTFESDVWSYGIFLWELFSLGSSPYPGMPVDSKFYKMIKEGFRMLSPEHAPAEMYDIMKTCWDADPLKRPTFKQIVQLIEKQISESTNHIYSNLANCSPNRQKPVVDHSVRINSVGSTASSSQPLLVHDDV
T2 sequence (P16234 24-1089): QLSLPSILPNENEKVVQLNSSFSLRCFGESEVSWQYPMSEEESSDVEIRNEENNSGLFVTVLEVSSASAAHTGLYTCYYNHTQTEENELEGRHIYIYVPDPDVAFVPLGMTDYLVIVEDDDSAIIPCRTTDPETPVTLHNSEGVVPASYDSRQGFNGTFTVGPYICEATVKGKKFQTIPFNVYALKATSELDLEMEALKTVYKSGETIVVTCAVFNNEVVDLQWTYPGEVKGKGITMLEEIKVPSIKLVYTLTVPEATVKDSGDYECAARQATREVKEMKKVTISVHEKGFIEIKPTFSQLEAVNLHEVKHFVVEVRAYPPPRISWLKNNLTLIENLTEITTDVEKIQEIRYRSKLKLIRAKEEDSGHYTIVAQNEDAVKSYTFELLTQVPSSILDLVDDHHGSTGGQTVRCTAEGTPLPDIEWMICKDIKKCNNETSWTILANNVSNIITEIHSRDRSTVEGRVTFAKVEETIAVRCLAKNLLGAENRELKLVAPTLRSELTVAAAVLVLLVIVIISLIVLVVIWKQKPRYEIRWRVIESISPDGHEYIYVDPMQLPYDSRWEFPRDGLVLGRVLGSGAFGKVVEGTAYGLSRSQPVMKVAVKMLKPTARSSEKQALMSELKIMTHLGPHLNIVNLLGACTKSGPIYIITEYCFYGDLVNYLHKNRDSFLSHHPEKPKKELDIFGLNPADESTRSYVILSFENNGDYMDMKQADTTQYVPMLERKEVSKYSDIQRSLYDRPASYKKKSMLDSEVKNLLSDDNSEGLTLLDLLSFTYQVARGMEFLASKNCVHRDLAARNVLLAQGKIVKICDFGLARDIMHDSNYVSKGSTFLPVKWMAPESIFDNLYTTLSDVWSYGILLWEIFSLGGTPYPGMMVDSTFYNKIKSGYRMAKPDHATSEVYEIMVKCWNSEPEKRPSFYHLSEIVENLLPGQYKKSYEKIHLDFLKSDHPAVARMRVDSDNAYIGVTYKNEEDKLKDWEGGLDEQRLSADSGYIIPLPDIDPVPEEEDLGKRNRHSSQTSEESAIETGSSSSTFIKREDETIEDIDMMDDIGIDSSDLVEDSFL

One may read the pIC50 as −log10 of the IC50, conventionally taken in molar units. As to `COc1cc2nccc(Oc3ccc(NC(=O)OCCOc4ccccc4F)cc3)c2cc1OC` [Example 203, 2-(2-Fluorophenoxy)ethyl N-{4-[(6,7-dimethoxy-4-quinolyl)oxy]phenyl}carbamate], the values for the pIC50 on c-kit and on PDGF-Ra were 6.77 and 7.60, respectively.

As to `COc1cc2nccc(Oc3ccc(NC(=O)OCCOc4ccccc4F)c(C)c3C)c2cc1OC` [Example 204, 2-(2-Fluorophenoxy)ethyl N-{4-[(6,7-dimethoxy-4-quinolyl)oxy]-2,3-dimethylphenyl}carbamate], the pIC50 at c-kit was 7.10; on PDGF-Ra, 7.55.

In the case of `COc1cc2ncnc(Oc3ccc(NC(=O)OCCOc4ccccc4F)cc3)c2cc1OC` [Example 206, 2-(2-Fluorophenoxy)ethyl N-{4-[(6,7-dimethoxy-4-quinazolinyl)oxy]phenyl}carbamate], the pIC50 at c-kit was 7.10; on PDGF-Ra it was 7.89.

As to `COc1cc2nccc(Oc3ccc(NC(=O)OCCOc4cccc(F)c4)cc3)c2cc1OC` [Example 207, 2-(3-Fluorophenoxy)ethyl N-{4-[(6,7-dimethoxy-4-quinolyl)oxy]phenyl}carbamate], the negative logarithm of the IC50 (pIC50) at c-kit was 7.26; at PDGF-Ra, 7.51.

As to `COc1cc2nccc(Oc3ccc(NC(=O)OCCOc4cccc(F)c4)c(C)c3C)c2cc1OC` [Example 208, 2-(3-Fluorophenoxy)ethyl N-{4-[(6,7-dimethoxy-4-quinolyl)oxy]-2,3-dimethylphenyl}carbamate], the pIC50 on c-kit was 7.28; at PDGF-Ra it was 7.74.

Consider `COc1cc2ncnc(Oc3ccc(NC(=O)OCCOc4cccc(F)c4)cc3)c2cc1OC` [Example 210, 2-(3-Fluorophenoxy)ethyl N-{4-[(6,7-dimethoxy-4-quinazolinyl)oxy]phenyl}carbamate], for which the pIC50 on c-kit is 7.02; on PDGF-Ra, 7.80.

`COc1cc2ncnc(Oc3ccc(NC(=O)OCCCOc4ccccc4Cl)c(C)c3C)c2cc1OC` [Example 211, 3-(2-Chlorophenoxy)propyl N-{4-[(6,7-dimethoxy-4-quinazolinyl)oxy]-2,3-dimethylphenyl}-carbamate]: the pIC50 on c-kit was 7.37; on PDGF-Ra it was 7.77.

As to `COc1cc2ncnc(Oc3ccc(NC(=O)OCCCOc4cccc(Cl)c4)c(C)c3C)c2cc1OC` [Example 212, 3-(3-Chlorophenoxy)propyl N-{4-[(6,7-dimethoxy-4-quinazolinyl)oxy]-2,3-dimethylphenyl}carbamate], the results for the pIC50 at c-kit and at PDGF-Ra were 7.15 and 7.55, respectively.

In the case of `COc1cc2ncnc(Oc3ccc(NC(=O)OCCCOc4ccc(Cl)cc4)c(C)c3C)c2cc1OC` [Example 213, 3-(4-Chlorophenoxy)propyl N-{4-[(6,7-dimethoxy-4-quinazolinyl)oxy]-2,3-dimethylphenyl}-carbamate], the pIC50 is 7.21 on c-kit and 7.68 at PDGF-Ra.

Turning to `COc1cccc(OC(=O)Nc2ccc(Oc3ccnc4cc(OC)c(OC)cc34)cc2)c1` [Example 214, 3-Methoxyphenyl N-{4-[(6,7-dimethoxy-4-quinolyl)oxy]phenyl}carbamate], the results for the pIC50 at c-kit and on PDGF-Ra were 7.33 and less than 7.52, respectively. Besides, on PDGF-Ra (figure in parentheses in >30( ), concentration not defined, presumably 30 nM), the “PDGF (E) inhibition (%) in >30( )” value was 6%.

Regarding `CCCOC(=O)Nc1ccc(Oc2ccnc3cc(OC)c(OC)cc23)c(C)c1C` [Example 215, Propyl N-{4-[(6,7-Dimethoxy-4-quinolin)oxy]-2,3-dimethylphenyl}carbamate], the results for the negative logarithm of the IC50 (pIC50) on c-kit and at PDGF-Ra were more than 7.52 and 8.10, respectively.

As for `COc1cc2nccc(Oc3ccc(NC(=O)OC4CCCCC4)cc3)c2cc1OC` [Example 230, Cyclohexyl N-{4-[(6,7-dimethoxy-4-quinolyl)oxy]phenyl}carbamate], the pIC50 at c-kit is 6.95; on PDGF-Ra, 8.10.

Turning to `COc1cc2nccc(Oc3ccc(NC(=O)OCc4ccccc4)cc3)c2cc1OC` [Example 231, Benzyl N-{4-[(6,7-dimethoxy-4-quinolyl)oxy]phenyl}carbamate], the pIC50 at c-kit was 7.07; at PDGF-Ra, 9.00.

The record behind these values is patent US7135466B2 (Kirin Beer Kabushiki Kaisha, priority 1999, dated 2006).
